Series [1] addresses fructose-1,6-bisphosphate aldolase (F-1,6-BP aldolase) from Staphylococcus carnosus, class I, purified (Staphylococcus carnosus, UniProt Q07159). Conditions: read-out: Km for F-1-P; cleavage of F-1-P to DHAP and glyceraldehyde; 37° C., pH 7.5. Here is the method:
Purified aldolase (40 μg/ml) was used for characterizing the enzyme, and 120 μg/ml were used for molecular weight determination.

The test system of series [2] is O=C(COP(=O)(O)O)[C@@H](O)[C@H](O)[C@H](O)COP(=O)(O)O. Nature of the series: purified protein, by the assay type. As to conditions: other: cleavage of F-1,6-BP to DHAP and glyceraldehyde 3-phosphate, 37° C., pH 7.5.

fructose-1,6-bisphosphate aldolase (F-1,6-BP aldolase) from Staphylococcus carnosus, class I, purified, sequence (Q07159 whole entry): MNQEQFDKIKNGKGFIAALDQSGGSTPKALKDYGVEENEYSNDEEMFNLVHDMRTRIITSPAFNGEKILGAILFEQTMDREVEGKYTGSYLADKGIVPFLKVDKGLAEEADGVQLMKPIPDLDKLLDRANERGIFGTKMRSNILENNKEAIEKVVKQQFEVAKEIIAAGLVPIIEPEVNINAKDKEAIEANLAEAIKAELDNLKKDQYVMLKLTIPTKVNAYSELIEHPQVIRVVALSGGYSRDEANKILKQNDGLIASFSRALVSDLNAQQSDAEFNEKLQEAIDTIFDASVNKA

As usually defined, the Km is the concentration of substrate that gives half-maximal velocity. On to `O=C(COP(=O)(O)O)[C@@H](O)[C@H](O)[C@H](O)CO` [F-1-P], for which the Km in series [1] stood at 18.8 mM. Consider “fructose-1,6-bisphosphate aldolase (F-1,6-BP aldolase) from Staphylococcus carnosus, class I, purified (Staphylococcus carnosus subsp. carnosus TM300)”, for which, in series [2], the Km stood at 0.022 mM.

Values taken from patent publication US5162221A (Forschungszentrum Juelich GmbH, priority 1989, dated 1992).
